This is an account of results in BindingDB's records for doi:10.1016/j.bmcl.2010.07.026 (Daiichi Sankyo, 2010).

What is called pIC50 is the IC50 on a negative log10 scale, so that one unit is a factor of ten.

For the test, the target named is 3-phosphoinositide-dependent protein kinase 1 (Homo sapiens) (UniProt O15530). As to the kind of experiment: Inhibition of recombinant PDK1 after 15 mins.

SMILES strings stand for the structures. pIC50: −log10 of the molar value.

Turning to `O=C(NC[C@@H]1CCCN1)c1ccc(-c2cnc3ccc(NCc4ccc(Cl)c(Cl)c4)nn23)cc1` [(S)-4-(6-(3,4-dichlorobenzylamino)imidazo[1,2-b]pyridazin-3-yl)-N-(pyrrolidin-2-ylmethyl)benzamide], the pIC50 was less than 4.00.
The figure for `CN(C)CCNC(=O)c1ccc(-c2cnc3ccc(NCC4CC4)nn23)cc1` [4-(6-(cyclopropylmethylamino)imidazo[1,2-b]pyridazin-3-yl)-N-(2-(dimethylamino)ethyl)benzamide] is less than 4.00; for `O=C(NCCN1CCCC1)c1ccc(-c2cnc3ccc(NCc4ccc(Cl)c(Cl)c4)nn23)cc1` [4-(6-(3,4-dichlorobenzylamino)imidazo[1,2-b]pyridazin-3-yl)-N-(2-(pyrrolidin-1-yl)ethyl)benzamide] it is less than 4.00.
The figure for `O=C(NC[C@@H]1CCCN1)c1ccc(-c2cnc3ccc(NCC4CC4)nn23)cc1` [(S)-4-(6-(cyclopropylmethylamino)imidazo[1,2-b]pyridazin-3-yl)-N-(pyrrolidin-2-ylmethyl)benzamide] is less than 4.00.
For `O=C(NC[C@@H]1CCCN1)c1ccc(-c2cnc3ccc(NCc4cccc(Cl)c4)nn23)cc1` [(S)-4-(6-(3-chlorobenzylamino)imidazo[1,2-b]pyridazin-3-yl)-N-(pyrrolidin-2-ylmethyl)benzamide], the pIC50 was less than 4.00.
